Data: paper PMC11080019, “Synthesis and Biological Profiling of Quinolino-Fused 7-Deazapurine Nucleosides” (ACS Omega, 2024)
Structures can show the parent of a compound that is named as a salt.

Target: T1, T7 RNA polymerase (Escherichia phage T7, UniProt P00573)
T1 construct: purchased New England Biolabs
Assay: In vitro transcription (IVT) with T7 RNA polymerase, 35DNA_A7 template
Format: biochemical
Conditions: 7.5 mM NTPs, 37 °C, 16 h, 35-mer RNA with seven modifications
Method: A^QTP was then used as a substrate for the T7 RNA polymerase in the in vitro transcription (IVT) experiments.[30] We used 35DNA_A7 DNA template encoding for 35-mer RNA containing seven A^Q modifications (Table 4). We used the T7 High Yield RNA Synthesis Kit with a high concentration of NTPs (7.5 mM each) but without any further additives. The reaction time at 37 °C was 16 h. The positive control experiment was performed with all four natural NTPs giving nonmodified transcript 35RNA_A7 (Figure 2, lane 2). The negative control contained only the natural CTP, GTP, and UTP in the absence of ATP (Figure 2, lane 3). The real IVT experiment was performed with A^QTP and three natural NTPs (Figure 2, lane 4). The transcription products were visualized by denaturing 20% denaturing PAGE (Figure 2) and characterized by LC–MS (see Figures S1 and S2 in the SI). […]
Aliquots of the first three reactions (50 ng) were separated by denaturating PAGE (20%) with urea at 23 mV for 1 h and visualized by fluorescence imaging.
Aliquots of the positive control (35RNA_A7) and the modified RNA (35RNA_A^Q7) were analyzed by UPLC-ESI-MS confirming the full transcription without any misincorporation (see Figures S1 and S2 in Supporting Information).

T1 sequence (P00573 whole entry): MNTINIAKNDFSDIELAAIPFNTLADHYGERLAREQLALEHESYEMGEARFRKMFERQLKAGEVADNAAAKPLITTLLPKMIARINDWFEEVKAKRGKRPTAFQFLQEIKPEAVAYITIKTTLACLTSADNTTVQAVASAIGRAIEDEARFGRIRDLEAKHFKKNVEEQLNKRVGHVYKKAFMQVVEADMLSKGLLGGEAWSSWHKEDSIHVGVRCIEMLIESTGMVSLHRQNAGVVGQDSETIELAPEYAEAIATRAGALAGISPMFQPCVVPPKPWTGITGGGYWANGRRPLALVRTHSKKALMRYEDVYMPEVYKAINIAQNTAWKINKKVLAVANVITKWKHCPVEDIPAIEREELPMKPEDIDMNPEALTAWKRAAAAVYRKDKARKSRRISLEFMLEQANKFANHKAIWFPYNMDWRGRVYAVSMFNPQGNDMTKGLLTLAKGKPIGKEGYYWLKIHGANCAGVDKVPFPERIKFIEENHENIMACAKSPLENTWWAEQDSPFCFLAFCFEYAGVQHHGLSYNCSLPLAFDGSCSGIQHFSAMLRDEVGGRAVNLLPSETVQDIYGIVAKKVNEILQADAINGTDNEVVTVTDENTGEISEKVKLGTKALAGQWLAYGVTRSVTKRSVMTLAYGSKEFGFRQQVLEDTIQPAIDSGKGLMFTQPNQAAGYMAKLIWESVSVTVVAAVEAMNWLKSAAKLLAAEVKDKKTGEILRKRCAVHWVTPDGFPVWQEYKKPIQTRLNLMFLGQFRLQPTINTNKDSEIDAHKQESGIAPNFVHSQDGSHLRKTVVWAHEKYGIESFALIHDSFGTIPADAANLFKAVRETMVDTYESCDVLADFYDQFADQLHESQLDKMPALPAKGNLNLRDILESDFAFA

## Nc1ncnc2c1c1c3cccnc3ccc1n2[C@@H]1O[C@H](COP(=O)(O)OP(=O)(O)OP(=O)(O)O)[C@@H](O)[C@H]1O [A^QTP, 11-Amino-7-(β-D-ribofuranosyl)pyrimido[5′,4′:4,5]pyrrolo[3,2-f]quinoline 5′-O-Triphosphate Bistriethylammonium Salt]
  substrate activity for T7 RNA polymerase in in vitro transcription (in words): moderately efficient substrate
